Laboratory results as given in PubChem BioAssay AID248 (DTP/NCI, 2004).
Where “and” joins values, the source holds several entries; their conditions need not be identical. Equal entries are not always repeated. Toxic doses and inconclusive results are not listed. Cut-off read from the data, not from the text of the source: active = T/C of 150% or more; inactive = T/C below 125%.

Test system: L1210 leukemia ip in BDF1 mice, survival T/C
Test: NCI In Vivo Anticancer Drug Screen. Data for tumor model L1210 Leukemia (intraperitoneal) in B6D2F1 (BDF1) mice
Conditions: endpoint: mean survival time, higher = longer survival
Outline: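 In this screen, tumor-bearing mice given compound are compared to those given vehicle, and their survival values are reported as a treated-to-control quotient.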

[1] = dose: 12.5 mg/kg/injection, schedule: Q01DX009 (ip), vehicle: saline
[2] = dose: 25.0 mg/kg/injection, schedule: Q01DX009 (ip), vehicle: saline
[3] = dose: 50.0 mg/kg/injection, schedule: Q04DX003 (ip), vehicle: saline with Tween-80
[4] = dose: 100.0 mg/kg/injection, schedule: Q04DX003 (ip), vehicle: Klucel (hydroxypropylcellulose) (HPC)
[5] = dose: 200.0 mg/kg/injection, schedule: Q04DX003 (ip), vehicle: Klucel (hydroxypropylcellulose) (HPC)
[6] = dose: 400.0 mg/kg/injection, schedule: Q04DX003 (ip), vehicle: Klucel (hydroxypropylcellulose) (HPC)
[7] = dose: 12.5 mg/kg/injection, schedule: Q04DX003 (ip), vehicle: saline
[8] = dose: 25.0 mg/kg/injection, schedule: Q04DX003 (ip), vehicle: saline
[9] = dose: 12.5 mg/kg/injection, schedule: Q01DX009 (ip), vehicle: saline with Tween-80
[10] = dose: 25.0 mg/kg/injection, schedule: Q01DX009 (ip), vehicle: saline with Tween-80
[11] = dose: 50.0 mg/kg/injection, schedule: Q01DX009 (ip), vehicle: saline with Tween-80
[12] = dose: 100.0 mg/kg/injection, schedule: Q01DX001 (ip), vehicle: saline
[13] = dose: 200.0 mg/kg/injection, schedule: Q01DX001 (ip), vehicle: saline
[14] = dose: 400.0 mg/kg/injection, schedule: Q01DX001 (ip), vehicle: saline
[15] = dose: 50.0 mg/kg/injection, schedule: Q01DX009 (ip), vehicle: Klucel (hydroxypropylcellulose) (HPC)
[16] = dose: 100.0 mg/kg/injection, schedule: Q01DX009 (ip), vehicle: Klucel (hydroxypropylcellulose) (HPC)
[17] = dose: 100.0 mg/kg/injection, schedule: Q01DX009 (ip), vehicle: saline with Tween-80
[18] = dose: 200.0 mg/kg/injection, schedule: Q01DX009 (ip), vehicle: saline with Tween-80
[19] = dose: 200.0 mg/kg/injection, schedule: Q01DX009 (ip), vehicle: Klucel (hydroxypropylcellulose) (HPC)
[20] = dose: 400.0 mg/kg/injection, schedule: Q01DX009 (ip), vehicle: Klucel (hydroxypropylcellulose) (HPC)
[21] = dose: 100.0 mg/kg/injection, schedule: Q04DX003 (ip), vehicle: saline with Tween-80
[22] = dose: 200.0 mg/kg/injection, schedule: Q04DX003 (ip), vehicle: saline with Tween-80
[23] = dose: 75.0 mg/kg/injection, schedule: Q01DX001 (ip), vehicle: saline
[24] = dose: 150.0 mg/kg/injection, schedule: Q01DX001 (ip), vehicle: saline

Measured: T/C

CN(C)C(c1ccccc1)C(CBr)C(=O)c1ccc(Br)cc1 (stereo not given)
inactive: [1] 93 % of control | dose: 12.5 mg/kg/injection, schedule: Q04DX003 (ip), vehicle: saline with Tween-80 96 % of control | [2] 91 % of control | dose: 25.0 mg/kg/injection, schedule: Q04DX003 (ip), vehicle: saline with Tween-80 102 % of control | [3] 96 % of control

COc1cc(N(CCl)CCl)ccc1NC(=O)c1ccccc1
inactive: [4] 111 % of control | [5] 105 % of control | [6] 111 % of control

Cc1ccc(-c2csc(NC(=O)CC(=O)N/N=C/c3ccc(N(CCCl)CCCl)cc3C)n2)cc1
inactive: dose: 100.0 mg/kg/injection, schedule: Q01DX001 (ip), vehicle: carboxymethylcellulose (CMC) 112 % of control | dose: 200.0 mg/kg/injection, schedule: Q01DX001 (ip), vehicle: carboxymethylcellulose (CMC) 88 % of control | dose: 400.0 mg/kg/injection, schedule: Q01DX001 (ip), vehicle: carboxymethylcellulose (CMC) 93 % of control

CC1=[N+](C)C(C)(C)CC(C)O1 (stereo not given)
inactive: dose: 6.25 mg/kg/injection, schedule: Q01DX009 (ip), vehicle: saline 105 % of control | dose: 6.25 mg/kg/injection, schedule: Q04DX003 (ip), vehicle: saline 94 % of control | [1] 96 % of control | [7] 105 % of control | [2] 105 % of control | [8] 96 % of control

COc1ccc(Cc2c3cc(OC)c(OC)cc3cc[n+]2Cc2ccc(N(CCCl)CCCl)cc2)cc1OC
inactive: dose: 75.0 mg/kg/injection, schedule: Q01DX001 (ip), vehicle: carboxymethylcellulose (CMC) 100 % of control | dose: 150.0 mg/kg/injection, schedule: Q01DX001 (ip), vehicle: carboxymethylcellulose (CMC) 94 % of control

CC[N+](C)(CC)Cc1cc(C(C)=O)c(C)o1
inactive: [9] 90 % of control | [10] 95 % of control | [11] 93 % of control

CC(=O)C(Cl)C(C)=O.CC(=O)C(Cl)C(C)=O.CC(=O)CC(C)=O.[Rh]
inactive: dose: 50.0 mg/kg/injection, schedule: Q01DX001 (ip), vehicle: other 102 % of control | dose: 100.0 mg/kg/injection, schedule: Q01DX001 (ip), vehicle: other 98 % of control | dose: 200.0 mg/kg/injection, schedule: Q01DX001 (ip), vehicle: other 96 % of control | dose: 400.0 mg/kg/injection, schedule: Q01DX001 (ip), vehicle: other 98 % of control

CCCCCCCCCCC1Cc2ccccc2C1
inactive: dose: 50.0 mg/kg/injection, schedule: Q01DX001 (ip), vehicle: saline 95 % of control | [12] 98 % of control | [13] 104 % of control | [14] 93 % of control

Cc1ccc(NC(=O)Oc2c(C)cccc2C)c([N+](=O)[O-])c1
inactive: [15] 93 % of control | [16] 87 % of control

O=[N+]([O-])c1ccc(Cl)c2ccncc12
inactive: [11] 102 % of control | [17] 105 % of control | [18] 105 % of control

COc1ccccc1OCC(O)COc1ccccc1OC
inactive: [9] 92 % of control | [7] 106 % of control | [10] 95 % of control | [8] 105 % of control | [11] 94 % of control | dose: 50.0 mg/kg/injection, schedule: Q04DX003 (ip), vehicle: saline 105 % of control | [12] 104 % of control | [13] 100 % of control | [14] 102 % of control

COc1ccccc1NC(=O)Nc1ccc(F)cc1
inactive: [16] 95 % of control | [4] 95 % of control | [19] 92 % of control | [5] 92 % of control | [20] 108 % of control | [6] 94 % of control

O=[N+]([O-])/C=C/c1c[nH]c2ccccc12
inactive: [21] 92 % of control | [22] 106 % of control | dose: 400.0 mg/kg/injection, schedule: Q04DX003 (ip), vehicle: saline with Tween-80 103 % of control

CCCCCCCCCCCC(=O)Nc1ccccc1
inactive: dose: 12.5 mg/kg/injection, schedule: Q01DX009 (ip), vehicle: Klucel (hydroxypropylcellulose) (HPC) 92 % of control | dose: 25.0 mg/kg/injection, schedule: Q01DX009 (ip), vehicle: Klucel (hydroxypropylcellulose) (HPC) 90 % of control | [15] 110 % of control

COc1ccc(CN2CCCN(Cc3ccc(OC)cc3)C2c2ccc(OC)cc2)cc1
inactive: [17] 92 % of control | dose: 100.0 mg/kg/injection, schedule: Q04DX003 (ip), vehicle: acetone 94 % of control | [18] 98 % of control and 87 % of control | dose: 200.0 mg/kg/injection, schedule: Q04DX003 (ip), vehicle: acetone 97 % of control | dose: 400.0 mg/kg/injection, schedule: Q01DX009 (ip), vehicle: saline with Tween-80 96 % of control | dose: 400.0 mg/kg/injection, schedule: Q04DX003 (ip), vehicle: acetone 95 % of control

C/C(=C\C(=O)O)Cc1ccccc1 (tested in a mixture with another compound)
inactive: dose: 50.0 mg/kg/injection, schedule: Q04DX003 (ip), vehicle: other 106 % of control | dose: 100.0 mg/kg/injection, schedule: Q04DX003 (ip), vehicle: other 115 % of control | dose: 200.0 mg/kg/injection, schedule: Q04DX003 (ip), vehicle: other 114 % of control | dose: 400.0 mg/kg/injection, schedule: Q04DX003 (ip), vehicle: other 103 % of control

O=C1C=C(N2CCCC2)CC1
inactive: [23] 101 % of control | [24] 104 % of control

CNc1nc2ncn(C)c2c(=O)[nH]1
inactive: dose: 100.0 mg/kg/injection, schedule: Q01DX009 (ip), vehicle: saline 97 % of control | dose: 200.0 mg/kg/injection, schedule: Q01DX009 (ip), vehicle: saline 98 % of control | dose: 400.0 mg/kg/injection, schedule: Q01DX009 (ip), vehicle: saline 98 % of control

CCN(CC)C(=O)N1CCN(c2ccc(Cl)cc2)CC1
inactive: [23] 106 % of control | dose: 75.0 mg/kg/injection, schedule: Q04DX003 (ip), vehicle: saline 103 % of control | [24] 94 % of control | dose: 150.0 mg/kg/injection, schedule: Q04DX003 (ip), vehicle: saline 100 % of control | dose: 300.0 mg/kg/injection, schedule: Q01DX001 (ip), vehicle: saline 108 % of control | dose: 300.0 mg/kg/injection, schedule: Q04DX003 (ip), vehicle: saline 91 % of control

C[C@]12CCC(=O)C=C1CC[C@@H]1[C@@H]2[C@@H](O)C[C@@]2(C)[C@H]1CC[C@]2(O)C(=O)CF
inactive: dose: 50.0 mg/kg/injection, schedule: Q01DX Z (sc), vehicle: steriod suspending solution 106 % of control | dose: 250.0 mg/kg/injection, schedule: Q01DX Z (sc), vehicle: steriod suspending solution 104 % of control | dose: 500.0 mg/kg/injection, schedule: Q01DX Z (sc), vehicle: steriod suspending solution 107 % of control

Cc1cccc(OCCOC(=O)Nc2ccccc2F)c1
inactive: [16] 103 % of control | [19] 93 % of control | [20] 106 % of control

COc1ccc2nc(N)sc2c1
inactive: [9] 96 % of control | [10] 89 % of control | [11] 97 % of control and 91 % of control | [3] 107 % of control | [21] 112 % of control | [22] 93 % of control

CC12C=CC(CC1)C2OC(=O)c1ccccc1C(=O)O (stereo not given)
inactive: [16] 95 % of control | [4] 94 % of control | [19] 97 % of control | [5] 108 % of control | [20] 92 % of control | [6] 92 % of control
